This series is described as follows: Malvern laser diffraction particle sizing. It is filed as physicochemical. Conditions: Malvern Mastersizer X; dispersant iso octane/lecithin 0.05% w/w; sonicated 3 minutes; one analysis per sample. The procedure:
Particles of Examples 1A and 1B were analysed using Malvern laser diffraction particle sizing. Instrument: Malvern Mastersizer X Lens: 45 mm Reverse Fourier Analysis: 0607 presentation code Dispersant: Iso Octane/Lecithin 0.05% w/w Pre dispersion: Sonicate for 3 minutes Obscuration: 10% to 16% One analysis per sample was carried out. The median particle size (D50), particle size at 90% undersize (D90) and particle size at 10% undersize (D10) were used as responses to characterise the medium, course, and fine particles.

Here are results for two compounds from patent publication US20040045805A1, “Novel process for preparing and harvesting crystalline particles” (priority 2000, published 2004).

Take `CCC(=O)O[C@]1(C(=O)SCF)[C@H](C)C[C@H]2[C@@H]3C[C@H](F)C4=CC(=O)C=C[C@]4(C)[C@@]3(F)[C@@H](O)C[C@@]21C` [Example 1A, fluticasone propionate]: the “D10 (particle size at 10% undersize)” value came out at 1.01 μm, the “D50 (median particle size)” value is on record as 2.68 μm and the “D90 (particle size at 90% undersize)” value is 5.93 μm.
As to `CCC(=O)O[C@]1(C(=O)SCF)[C@H](C)C[C@H]2[C@@H]3C[C@H](F)C4=CC(=O)C=C[C@]4(C)[C@@]3(F)[C@@H](O)C[C@@]21C` [Example 1B, fluticasone propionate], the “D10 (particle size at 10% undersize)” value was 1.77 μm, the “D50 (median particle size)” value is on record as 3.65 μm and the “D90 (particle size at 90% undersize)” value is 7.24 μm.
